From PubChem BioAssay AID1963867 (Molecular Pharmacology Branch, DTP, NCI, 2024)

System: KRAS-mutant PDC tumor spheroid with HUVEC/MSC, viability
Test: Anticancer human tumor 327498-153-R-J2-PDC patient-derived uterine carcinosarcoma cell line growth inhibition [KRAS2]
Settings: for IC50: curve of first compound; for viability, T/C: stronger effect = lower value
Procedure, shortened: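 KRAS-mutant tumor cells were grown as spheroids with HUVEC endothelial cells and human MSCs as stroma. Targeted agents were tested alone and with KRAS pathway inhibitors. Doses started at or near clinical Cmax, or 10 microM, descending half-log.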

[1] = second compound 0.1 µM, first compound 0.0316 µM
[2] = second compound 0.1 µM, first compound 0.1 µM
[3] = second compound 0.1 µM, first compound 0.316 µM
[4] = second compound 0.1 µM, first compound 1 µM
[5] = second compound 0.1 µM, first compound 3.16 µM
[6] = second compound 0.316 µM, first compound 0.0316 µM
[7] = second compound 0.316 µM, first compound 0.1 µM
[8] = second compound 0.316 µM, first compound 0.316 µM
[9] = second compound 0.316 µM, first compound 1 µM
[10] = second compound 0.316 µM, first compound 3.16 µM
[11] = second compound 1 µM, first compound 0.0316 µM
[12] = second compound 1 µM, first compound 0.1 µM
[13] = second compound 1 µM, first compound 0.316 µM
[14] = second compound 1 µM, first compound 1 µM
[15] = second compound 1 µM, first compound 3.16 µM
[16] = second compound 3.16 µM, first compound 0.0316 µM
[17] = second compound 3.16 µM, first compound 0.1 µM
[18] = second compound 3.16 µM, first compound 0.316 µM
[19] = second compound 3.16 µM, first compound 1 µM
[20] = second compound 3.16 µM, first compound 3.16 µM
[21] = second compound 10 µM, first compound 0.0316 µM
[22] = second compound 10 µM, first compound 0.1 µM
[23] = second compound 10 µM, first compound 0.316 µM
[24] = second compound 10 µM, first compound 1 µM
[25] = second compound 10 µM, first compound 3.16 µM
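Further: spheroids exposed to agents for seven days before reading.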
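Wherever viability, T/C is given: 100% = DMSO vehicle wells so lower means fewer viable cells.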

Row | SMILES | IC50 (second compound 0.1 µM) | IC50 (second compound 0.316 µM) | IC50 (second compound 1 µM) | IC50 (second compound 3.16 µM) | IC50 (second compound 10 µM) | viability, T/C [1] | viability, T/C [2] | viability, T/C [3] | viability, T/C [4] | viability, T/C [5] | viability, T/C [6] | viability, T/C [7] | viability, T/C [8] | viability, T/C [9] | viability, T/C [10] | viability, T/C [11] | viability, T/C [12] | viability, T/C [13] | viability, T/C [14] | viability, T/C [15] | further results
1 | CC1COCCN1c1cc(-c2ccnn2C)c2ccnc(-c3ccn[nH]3)c2n1 (stereo not given) + COc1cc2nc(C)nc(NC(C)c3cc(N)cc(C(F)(F)F)c3)c2cc1OC1CCOC1 | 13 nM | 20.7 nM | 15.4 nM | 13.2 nM | < 10 nM | 3.7% | 2.44% | 3.52% | 4.74% | 4.39% | 31.4% | 9.52% | 6.32% | 5.51% | 5.8% | 30.1% | 10.6% | 5.67% | 7.04% | 4.67% | viability, T/C (second compound 0.1 µM, first compound 0.01 µM): 63.9%; viability, T/C (second compound 0.316 µM, first compound 0.01 µM): 81.8%; viability, T/C (second compound 1 µM, first compound 0.01 µM): 62.1%; viability, T/C (second compound 3.16 µM, first compound 0.01 µM): 57.9%; viability, T/C [16]: 25.2%; viability, T/C [17]: 6.64%; viability, T/C [18]: 3.75%; viability, T/C [19]: 3.28%; viability, T/C [20]: 3.79%; viability, T/C (second compound 10 µM, first compound 0.01 µM): 46.3%; viability, T/C [21]: 15.9%; viability, T/C [22]: 1.79%; viability, T/C [23]: 2.06%; viability, T/C [24]: 1.48%; viability, T/C [25]: 0.91%
2 | CCNC(=O)CC1N=C(c2ccc(Cl)cc2)c2cc(OC)ccc2-n2c(C)nnc21 (stereo not given) + COc1cc2nc(C)nc(NC(C)c3cc(N)cc(C(F)(F)F)c3)c2cc1OC1CCOC1 | 459 nM | 420 nM | 352 nM | 189 nM | 172 nM | 84.7% | 81.5% | 59.2% | 30.5% | 21.1% | 74% | 69.1% | 57.6% | 27.5% | 23.2% | 75.6% | 75.2% | 52.7% | 22.6% | 20.4% | viability, T/C (second compound 0.1 µM, first compound 10 µM): 20.4%; viability, T/C (second compound 0.316 µM, first compound 10 µM): 24.2%; viability, T/C (second compound 1 µM, first compound 10 µM): 18.2%; viability, T/C [16]: 75%; viability, T/C [17]: 56%; viability, T/C [18]: 47.2%; viability, T/C [19]: 26.5%; viability, T/C [20]: 20.6%; viability, T/C (second compound 3.16 µM, first compound 10 µM): 21.7%; viability, T/C [21]: 63.7%; viability, T/C [22]: 52.7%; viability, T/C [23]: 46.4%; viability, T/C [24]: 23.6%; viability, T/C [25]: 19.5%; viability, T/C (second compound 10 µM, first compound 10 µM): 13.9%
